Data: patent publication US6596753B2, “Compounds of the indolecarboxylic family and use thereof” (Societe L'Oreal S.A., priority 1997, dated 2003)

What was measured:
[1] = molecular target: T1, 5α-reductase 1 (Homo sapiens, UniProt P18405); assay: Inhibition of type 1 5α-reductase (14C-testosterone to DHT conversion, lysate of transfected COS7 cells); assay type: biochemical; settings: for IC50: pH 6.5 phosphate buffer, 1 nM 14C-testosterone, 5 mM NADPH, 50 minutes at 37° C., read-out: 5α-reductases: IC50 Type I; for quality as inhibitor of 5α-reductase (in words): statement covers both types of 5α-reductase; for specificity with respect to type 1 5α-reductase (in words): type 1 versus type 2
T1 construct: made in house; host or cells: COS7 cells (ATCC, CRL 1651), transient transfection with pSG5; 100,000 x g pellet of the lysate
T1 sequence (P18405 1-259): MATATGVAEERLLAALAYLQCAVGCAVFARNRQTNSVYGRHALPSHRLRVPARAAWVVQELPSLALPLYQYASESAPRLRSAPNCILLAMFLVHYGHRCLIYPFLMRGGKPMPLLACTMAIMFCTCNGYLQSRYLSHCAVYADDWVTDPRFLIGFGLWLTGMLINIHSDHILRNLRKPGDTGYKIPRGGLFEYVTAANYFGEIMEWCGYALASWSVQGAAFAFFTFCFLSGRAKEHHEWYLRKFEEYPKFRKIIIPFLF
Text: (§1) The coding sequences (complementary deoxyribonucleic acids: cDNA) of 5α-reductase 1 and of 5α-reductase 2 were cloned in the eukaryotic expression vector pSG5 (Stratagene). The enzymes were over-expressed after transient transfection of COS7 cells (ATCC, CRL 1651). The cDNAs of 5α-reductase 1 and of 5α-reductase 2 were obtained by reverse transcription and polymerase chain reaction (PCR) using specific primers, starting with total RNA from human testicles (sold by the company Clontech).
The primers used to obtain the 5α-reductase 1 cDNA are:
+ strand: 5′ […] 3′,
− strand: 5′ […] 3′.
(§2) By standard genetic engineering techniques, the 5α-reductase 1 cDNA obtained was inserted into the BamHI site of pSG5 and that of 5α-reductase 2 was inserted into the EcoRI site (see Maniatis et al., Molecular Cloning, Cold Spring Harbor, 1989).
(§3) The positive clones (recombinants) were identified by the hybridization technique with a cold probe (Plex luminescent kits, Millipore) and mapped by enzymatic digestions and partial sequencing.
(§4) After transient transfection, the COS7 cells are lysed in a 10 mM Tris-HCl, pH=7/150 mM KCl/1 mM EDTA buffer by 3 cycles of freezing/thawing. The homogenate is centrifuged at 100,000× g for 1 hour. The pellets containing the 5α-reductase 1 or the 5α-reductase 2 are taken up in a 40 mM, pH 6.5 phosphate buffer or a 40 mM, pH 5.5 citrate buffer for the 5α-reductase 1 or 5α-reductase 2, respectively.
(§5) 5 μg of proteins thus obtained are incubated in a well of a 96-well plate (NUNC) in the presence of 1 nM ^14C-testosterone (Amersham) and 5 mM nicotinamide […] dinucleotide phosphate, reduced form (NADPH) (Sigma) in the corresponding buffer (40 mM, pH 6.5 phosphate buffer or 40 mM, pH 5.5 citrate buffer for the 5α-reductase 1 or 5α-reductase 2, respectively) for 50 minutes at 37° C. after addition of the test products. The test products are added at concentrations of 10^−4 M to 10^−10 M, diluted in 40 mM, pH 6.5 phosphate buffer or 40 mM, pH 5.5 citrate buffer for the 5α-reductase 1 or 5α-reductase 2, respectively.
(§6) The reaction mixtures are then placed directly on a silica plate (HPTLC, 60F 254, Merck) and subjected to chromatography (solvent=10% diethyl ether, 90% dichloromethane). They are then analysed by digital autoradiography (Berthold).
(§7) The inhibition of the activity of the isoenzymes is measured by calculating the percentage of dihydrotestosterone formed from ^14C-testosterone relative to an untreated control.

[2] = molecular target: T2, 5α-reductase 2 (Homo sapiens, UniProt P31213); assay: Inhibition of type 2 5α-reductase (14C-testosterone to DHT conversion, lysate of transfected COS7 cells); assay type: biochemical; settings: for IC50: pH 5.5 citrate buffer, 1 nM 14C-testosterone, 5 mM NADPH, 50 minutes at 37° C., read-out: 5α-reductases: IC50 Type II; for specificity for the type 2 5α-reductase (in words): type 2 versus type 1
T2 construct: made in house; host or cells: COS7 cells (ATCC, CRL 1651), transient transfection with pSG5; 100,000 x g pellet of the lysate
T2 sequence (P31213 1-254): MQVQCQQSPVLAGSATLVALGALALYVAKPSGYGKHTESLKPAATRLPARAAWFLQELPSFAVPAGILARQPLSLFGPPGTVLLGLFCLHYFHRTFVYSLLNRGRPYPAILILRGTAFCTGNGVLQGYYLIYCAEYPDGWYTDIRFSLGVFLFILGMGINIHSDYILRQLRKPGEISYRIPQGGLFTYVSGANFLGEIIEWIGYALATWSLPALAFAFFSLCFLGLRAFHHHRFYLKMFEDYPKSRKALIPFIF
Text: as §1
The primers used to obtain the 5α-reductase 2 cDNA are:
+ strand: 5′ GCGATGCAGGTTCAGTG 3′
− strand: 5′ ATTGTGGGAGCTCTGCT 3′.
as §2, §3, §4, §5, §6, §7

Structure (SMILES)	IC50 [1] [µM]	quality as inhibitor of 5α-reductase (in words) [1]	specificity with respect to type 1 5α-reductase (in words) [1]	IC50 [2] [µM]	specificity for the type 2 5α-reductase (in words) [2]
Cc1c(C(=O)O)[nH]c2cc(OCc3ccccc3)c(OCc3ccccc3)cc12 [Compound b, 5,6-bis(benzyloxy)-3-methyl-1H-indole-2-carboxylic acid]	> 100	moderate inhibitor	more pronounced specificity for the type 1 5α-reductase	1	–
COc1cc(OCc2ccccc2)c2cc(C(=O)O)[nH]c2c1 [Example 1, 4-benzyloxy-6-methoxy-1H-indole-2-carboxylic acid]	1 to 4	–	very pronounced specificity with respect to type 1 5α-reductase	> 100	–
COc1cc(OCc2cc(C(F)(F)F)cc(C(F)(F)F)c2)c2cc(C(=O)O)[nH]c2c1 [Example 2, 4-[3,5-bis(trifluoromethyl)benzyloxy]-6-methoxy-1H-indole-2-carboxylic acid]	10	–	very pronounced specificity with respect to type 1 5α-reductase	> 100	–
COc1cc2[nH]c(C(=O)O)cc2cc1OCc1cc(C(F)(F)F)cc(C(F)(F)F)c1 [Example 3, 5-[3,5-bis(trifluoromethyl)benzyloxy]-6-methoxy-1H-indole-2-carboxylic Acid]	0.5	very good inhibitors of the two types of 5α-reductase	–	0.001 to 0.005	–
COc1cc2[nH]c(C(=O)O)cc2cc1OCc1cc(OC)c(OC)c(OC)c1 [Example 4, 5-(3,4,5-trimethoxybenzyloxy)-6-methoxy-1H-indole-2-carboxylic acid]	> 100	–	–	0.01	more pronounced specificity for the type 2 5α-reductase
COc1ccc(COc2cc3cc(C(=O)O)[nH]c3cc2OC)cc1 [Example 5, 5-(4-methoxybenzyloxy)-6-methoxy-1H-indole-2-carboxylic acid]	1 to 5	very good inhibitors of the two types of 5α-reductase	–	0.01	–
COc1cc2[nH]c(C(=O)O)cc2cc1OCc1ccc(C#N)cc1 [Example 6, 5-(4-cyanobenzyloxy)-6-methoxy-1H-indole-2-carboxylic acid]	5	very good inhibitors of the two types of 5α-reductase	–	0.04	–
O=C(O)c1cc2c(ccc3ccccc32)[nH]1 [Example 7, 3H-benz[e]indole-2-carboxylic acid]	3	–	pronounced specificity with respect to type 1 5α-reductase	6	–
Cn1c(C(=O)O)cc2c3ccccc3ccc21 [Example 8, 3-methyl-3H-benz[e]indole-2-carboxylic Acid]	0.5	–	pronounced specificity with respect to type 1 5α-reductase	10	–
COc1cc2[nH]c(C(=O)O)cc2cc1OCc1ccccc1 [a, 5-benzyloxy-6-methoxy-1H-indole-2-carboxylic acid]	1	very good inhibitors of the two types of 5α-reductase	–	0.001	–
O=C(O)c1cc2cc(OCc3ccccc3)c(OCc3ccccc3)cc2[nH]1 [c, 5,6-bis(benzyloxy)-1H-indole-2-carboxylic acid]	> 100	–	–	0.005	more pronounced specificity for the type 2 5α-reductase
